The values below come from patent publication US20040063668A1, “Novel acyclic nucleoside phosphonate derivatives, salts thereof and process for the preparation of the same” (priority 2001, published 2004).

The test system of data set [1] is Hepatitis B Virus (HBV). The experiment in a line: Inhibition of hepatitis B virus replication in HepG2.2.15 cell culture, quantitative PCR. The format is cell-based. To be noted: read-out: EC50(μM) in HBV.
Data set [2] can be described thus: Determination of cytotoxicity (MTT) in HepG2.2.15 cells. The note with it: human.
The subject of data set [3] is HBV. The format is in vivo, HBV transgenic mice (FVB strain). The note with it: effect = blood does not contain HBV DNA.
Data set [4] deals with HepG2.2.15. The experiment in a line: Determination of cytotoxicity (MTT) in HepG2.2.15 cells. The note with it: read-out: CC50(μM) in HepG2.2.15; MTT, 10th day from treatment with drug.
Setting [5] is: Hepatitis B virus, 240 h, HepG2.2.15 culture medium, 10 days after treatment with drug, PCR of HBV DNA.
The mark [6] stands for this setting: subcutaneous, 10 mg/kg/day for 9 days.

Read-outs that look alike come from different tables or passages of the source. A value given as a limit tells only on which side of the number the result lay.

In the case of `Nc1nc(O)c2ncn(CC3(OCP(=O)(O)O)CC3)c2n1` [Compound 5, ({1-[(2-amino-6-hydroxy-9H-purin-9-yl)methyl]cyclopropyl}oxy)methyl phosphonic acid], the EC50 in data set [1] (setting [5]) was > 0.1 µM. Also, in data set [2], the CC50 at 10 days was > 1000 µM.
For `CC(C)(C)C(=O)OCOP(=O)(COC1(Cn2cnc3cnc(N)nc32)CC1)OCOC(=O)C(C)(C)C` [Compound 10, 3-[({1-[(2-amino-9H-purin-9-yl)methyl]cyclopropyl}oxy)methyl]-8,8-dimethyl-3,7-dioxo-2,4,6-trioxa-3 ^5-phosphanon-1-yl pivalate], in data set [1] (Hepatitis B virus, HepG2.2.15, 240 h), the EC50 was > 0.08 µM. The “Result: number of mice showing pharmacological effect/number of total mice” value is listed as 5/6 in data set [3] (oral, 0.4 mg/kg/day for 9 days) and 4/4 in data set [3] (oral, 2 mg/kg/day for 9 days). Further, the CC50 at 10 days in data set [2] was > 1000 µM.
With `CCNc1nc(N)nc2c1ncn2CC1(OCP(=O)(O)O)CC1` [Compound 13, ({1-[(2-amino-6-ethylamino-9H-purin-9-yl)methyl]cyclopropyl}oxy)methylphosphonic Acid], the EC50 in data set [1] (setting [5]) is > 1 µM. Moreover, in data set [2], the CC50 at 10 days was > 1000 µM.
Regarding `CC1CC1(Cn1cnc2c(O)nc(N)nc21)OCP(=O)(O)O` (stereo not drawn) [Compound 97, ({1-[(2-amino-6-hydroxy-9H-purin-9-yl)methyl]-2-methylcyclopropyl}oxy)methylphosphonic acid], the concentration giving a half-maximal response (EC50) in data set [1] (setting [5]) was > 0.05 µM. Besides, the “Result: number of mice showing pharmacological effect/number of total mice” value in data set [3] (setting [6]) is given as 4/4. The CC50 at 10 days in data set [2] is > 1000 µM.
On to `CC1CC1(Cn1cnc2cnc(N)nc21)OCP(=O)(O)O` (stereo not drawn) [Compound 98, ({1-[(2-amino-9H-purin-9-yl)methyl]-2-methylcyclopropyl}oxy)methylphosphonic acid], for which the EC50 in data set [1] (setting [5]) is > 1 µM. Moreover, in data set [3] (setting [6]), the “Result: number of mice showing pharmacological effect/number of total mice” value is recorded as 4/4. In data set [2], the cytotoxic concentration (CC50) at 10 days is > 1000 µM.
In the case of `Nc1nc(NC2CC2)c2ncn(CC3(OCP(=O)(O)O)CC3)c2n1` [Compound 11, ({1-[(2-amino-6-cyclopropylamino-9H-purin-9-yl)methyl]cyclopropyl}oxy)meth-ylplhosplhonic acid], the EC50 in data set [1] (setting [5]) is > 20 µM. For the same compound, the half-maximal cytotoxic concentration (CC50) at 10 days in data set [2] is > 1000 µM.
`Cc1ccc(Sc2nc(N)nc3c2ncn3CC2(OCP(=O)(O)O)CC2)cc1` [Compound 66, {[1-({2-amino-6-[(4-methylphenyl)sulfanyl]-9H-purin-9-yl}methyl)cyclopropyl]oxy}methylphosphonic acid]: the EC50 in data set [1] (setting [5]) is > 0.1 µM. In data set [3] (setting [6]), the “Result: number of mice showing pharmacological effect/number of total mice” value is 4/4. In data set [2], the cytotoxic concentration (CC50) at 10 days is > 1000 µM.
For `Cc1cn(CC2(OCP(=O)(O)O)CC2)c(=O)[nH]c1=O` [Compound 31, [(1-{[5-methyl-2,4-dioxo-3,4-dihydro-1(2H)-pyrimnidinyl]methyl}cyclopropyl)oxy]methylphosphonic acid], the concentration giving a half-maximal response (EC50) in data set [1] (setting [5]) was > 50 µM. The CC50 at 10 days in data set [2] is > 1000 µM.
In the same order, the values of `Nc1nc(O)c2ncn(CC3(OCP(=O)(OCC(F)(F)F)OCC(F)(F)F)CC3)c2n1` [Compound 45, bis(2,2,2-trifluoroethyl)({1-[(2-amino-6-hydroxy-9H-purin-9-yl)methyl]cyclopropyl}oxy)methylphosphonate] are > 0.5 µM and > 1000 µM.
For `CN(C)c1nc(N)nc2c1ncn2CC1(OCP(=O)(O)O)CC1` [Compound 15, [(1-{[2-amino-6-(dimethylamino)-9H-purin-9-yl]methyl}cyclopropyl)oxy]methyl phosphonic acid], in that order: > 0.8 µM and > 1000 µM.
Consider `Nc1nc(N2CCOCC2)c2ncn(CC3(OCP(=O)(O)O)CC3)c2n1` [Compound 37, [(1-{[2-amino-6-(4-morpholinyl)-9H-purin-9-yl]methyl}cyclopropyl)oxy]methyl phosphonic acid], for which the EC50 in data set [1] (setting [5]) was > 5 µM. Besides, the half-maximal cytotoxic concentration (CC50) at 10 days in data set [2] was > 1000 µM.
In the same order, the values of `CC(C)(C)OC(=O)OCOP(=O)(COC1(Cn2cnc3cnc(N)nc32)CC1)OCOC(=O)OC(C)(C)C` [Compound 69, bis{[(t-butoxycarbonyl)oxy]methyl}({1-[(2-amino-9H-purin-9-yl)methyl]cyclopropyl}oxy)methylphosphonate] are > 1 µM and > 1000 µM.
For `Nc1ncc2ncn(CC3(OCP(=O)(O)O)CC3)c2n1` [Compound 9, ({1-[(2-amino-9H-purin-9-yl)methyl]cyclopropyl}oxy)methylphosphonic acid], in that order: > 0.3 µM and > 1000 µM.
In the same order, the values of `Cc1ccc(Sc2nc(N)nc3c2ncn3CC2(OCP(=O)(OCC(F)(F)F)OCC(F)(F)F)CC2)cc1` [Compound 62, bis(2,2,2-trifluoroethyl){[1-({2-amino-6-[(4-methylphenyl)sulfanyl]-9H-purin-9-yl}methyl)cyclopropyl]oxy}methylphosphonate] are > 0.5 µM and > 1000 µM.
Turning to `CC(C)(C)C(=O)OCOP(=O)(COC1(Cn2cnc3c(N)ncnc32)CC1)OCOC(=O)C(C)(C)C` [Compound 2, 3-[({1-[(6-amino-9H-purin-9-yl)methyl]cyclopropyl}oxy)methyl]-8,8-dimethyl-3,7-dioxo-2,46-trioxa-3 ^5-phosphanon-1-yl pivalate], the concentration giving a half-maximal response (EC50) in data set [1] (setting [5]) was > 0.1 µM. In addition, the CC50 at 10 days in data set [2] was > 1000 µM.
Consider `CC(C)Nc1nc(N)nc2c1ncn2CC1(OCP(=O)(O)O)CC1` [Compound 17, [(1-{[2-amino-6-(isopropylamino)-9H-purin-9-yl]methyl}cyclopropyl)oxy]methyl phosphonic acid], for which, in data set [1] (setting [5]), the EC50 is > 0.5 µM. Also, in data set [2], the CC50 at 10 days was > 1000 µM.
In the same order, the values of `CN1CCN(c2nc(N)nc3c2ncn3CC2(OCP(=O)(O)O)CC2)CC1` [Compound 41, [(1-{[2-amino-6-(4-methyl-1-piperazinyl)-9H-purin-9-yl]methyl}cyclopropyl)oxy]methylphosphonic Acid] are > 1 µM and > 1000 µM.
Regarding `Nc1ncnc2c1ncn2CCOCP(=O)(O)O` [PMEA, reference compound], the EC50 in data set [1] (HepG2.2.15 culture medium, 10 days after treatment with drug, PCR of HBV DNA) came out at 5 µM. Also, in data set [4], the CC50 was > 500 µM.
For `Cc1nc(N)nc2c1ncn2CC1(OCP(=O)(O)O)CC1` [Compound 25, ({1-[(2-amino-6-methyl-9H-purin-9-yl)methyl]cyclopropyl}oxy)methyl phosphonic acid], the 50% effective concentration (EC50) in data set [1] (setting [5]) is > 5 µM. Moreover, the CC50 at 10 days in data set [2] was > 1000 µM.
For `Nc1nc(N)c2ncn(CC3(OCP(=O)(O)O)CC3)c2n1` [Compound 19, ({1-[(2,6-diamino-9H-purin-9-yl)methyl]cyclopropyl}oxy)methylphosphonic acid], in that order: > 0.3 µM and > 1000 µM.
Consider `Nc1nc(Cl)c2ncn(CC3(OCP(=O)(O)O)CC3)c2n1` [Compound 3, ({1-[(2-amino-6-chloro-9H-purin-9-yl)methyl]cyclopropyl}oxy)methylphosphonic acid], for which, in data set [1] (setting [5]), the EC50 was > 0.5 µM. Also, the CC50 at 10 days in data set [2] was > 1000 µM.
In the same order, the values of `Nc1ncnc2c1ncn2CC1(OCP(=O)(O)O)CC1` [Compound 1, ({1-[(6-amino-9H-purin-9-yl)methyl]cyclopropyl}oxy)methylphosphonic acid] are > 1 µM and > 1000 µM.
As to `CCOc1nc(N)nc2c1ncn2CC1(OCP(=O)(O)O)CC1` [Compound 23, ({1-[(2-amino-6-ethoxy-9H-purin-9-yl)methyl]cyclopropyl}oxy)methyl phosphonic acid], in data set [1] (setting [5]), the 50% effective concentration (EC50) was > 0.1 µM. Moreover, the “Result: number of mice showing pharmacological effect/number of total mice” value in data set [3] (setting [6]) is 4/4. Further, in data set [2], the CC50 at 10 days was > 1000 µM.
In the case of `Nc1nc(Cl)c2ncn(CC3(OCP(=O)(OCC(F)(F)F)OCC(F)(F)F)CC3)c2n1` [Compound 46, bis(2,2,2-trifluoroethyl)({1-[(2-amino-6-chloro-9H-purin-9-yl)methyl]cyclopropyl}oxy)methylphosphonate], in data set [1] (setting [5]), the EC50 was > 1 µM. The CC50 at 10 days in data set [2] is > 1000 µM.
